This assay deals with T1, His-Cbl(TKB) (Homo sapiens, UniProt P22681).
T1 sequence (P22681 47-351 limits assumed): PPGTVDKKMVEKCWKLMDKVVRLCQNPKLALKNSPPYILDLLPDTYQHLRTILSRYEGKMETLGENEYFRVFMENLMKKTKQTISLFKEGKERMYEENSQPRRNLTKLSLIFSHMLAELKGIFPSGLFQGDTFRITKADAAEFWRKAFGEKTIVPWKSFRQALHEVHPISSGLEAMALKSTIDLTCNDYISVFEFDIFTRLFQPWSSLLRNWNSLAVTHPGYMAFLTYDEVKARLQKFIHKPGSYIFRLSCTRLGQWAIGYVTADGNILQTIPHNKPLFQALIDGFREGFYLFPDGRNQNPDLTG
The assay can be described thus: Competitive FP assay, displacement of labeled ZAP70 peptide 1 from His-Cbl. The settings on record: 100 nM labeled peptide 1. In kind it is binding.

For `CC(=O)N[C@H](C(=O)N[C@@H](CC(C)C)C(=O)N[C@@H](CC(N)=O)C(=O)N[C@@H](CO)C(=O)N[C@@H](CC(=O)O)C(=O)NCC(=O)N[C@@H](Cc1ccc(OP(=O)(O)O)cc1)C(=O)N[C@H](C(=O)N1CCC[C@H]1C(=O)N[C@@H](CCC(=O)O)C(=O)N1CCC[C@H]1C(=O)N[C@@H](C)C(N)=O)[C@@H](C)O)[C@@H](C)O` [ZAP70 peptide 2, Ac-TLNSDGpYTPEPA-CONH2], the “ΔmP (competition)” value runs as follows: (0.3 μM His-Cbl(TKB)) “do not give measureable IC50 or ΔmP values”; (1.25 μM His-Cbl(TKB)) “do not give measureable IC50 or ΔmP values”; (5 μM His-Cbl(TKB)) 52.5 mP; (9 μM His-Cbl(TKB)) 85.2 mP; ([…] His-Cbl(TKB)) 25.7 mP.

(Values after paper PMC3078584 (Analytical biochemistry, 2010).)
